Biological target: CDK4 (Homo sapiens, UniProt P11802+Q16531)
Assay: CDK4 percentage degradation in Calu-1 cells (Table 6)
Type: cell-based
Parameters: Cells that express cyclin D1-3 and CDK4/6 proteins were treated with heterobifunctional compounds; endogenous in cells; host or cells: Calu-1
Details: 16 hours; for inhibition at 0.04 µM: 40 nM; for inhibition at 0.2 µM: 200 nM
Outline: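 Percentage degradation of Cyclin D1 and CDK4 derived from densitometry of ECL Western blots on lysates of Calu-1 cells. Treatment was 16 h with compound at either 40 nM or 200 nM.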

Chain of CDK4 (P11802 2-303 limits assumed): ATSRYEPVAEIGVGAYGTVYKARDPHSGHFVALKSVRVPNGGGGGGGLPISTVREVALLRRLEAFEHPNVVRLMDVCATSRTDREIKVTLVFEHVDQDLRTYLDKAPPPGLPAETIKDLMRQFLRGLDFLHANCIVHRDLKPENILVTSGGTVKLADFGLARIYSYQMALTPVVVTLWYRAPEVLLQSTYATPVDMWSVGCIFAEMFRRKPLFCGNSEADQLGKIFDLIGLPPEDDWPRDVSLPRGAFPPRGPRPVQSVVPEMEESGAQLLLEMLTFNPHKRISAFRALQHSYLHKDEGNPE
Chain of CDK4 (P24385 whole entry partner): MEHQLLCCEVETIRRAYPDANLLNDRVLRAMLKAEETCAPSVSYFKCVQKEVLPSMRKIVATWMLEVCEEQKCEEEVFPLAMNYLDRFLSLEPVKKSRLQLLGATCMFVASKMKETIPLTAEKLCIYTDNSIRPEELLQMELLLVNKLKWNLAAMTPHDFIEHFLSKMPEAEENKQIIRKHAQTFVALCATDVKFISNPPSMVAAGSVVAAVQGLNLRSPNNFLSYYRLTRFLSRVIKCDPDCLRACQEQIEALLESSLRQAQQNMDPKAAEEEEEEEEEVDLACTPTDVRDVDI
Chain of CDK4 (Q16531 2-1140 limits assumed): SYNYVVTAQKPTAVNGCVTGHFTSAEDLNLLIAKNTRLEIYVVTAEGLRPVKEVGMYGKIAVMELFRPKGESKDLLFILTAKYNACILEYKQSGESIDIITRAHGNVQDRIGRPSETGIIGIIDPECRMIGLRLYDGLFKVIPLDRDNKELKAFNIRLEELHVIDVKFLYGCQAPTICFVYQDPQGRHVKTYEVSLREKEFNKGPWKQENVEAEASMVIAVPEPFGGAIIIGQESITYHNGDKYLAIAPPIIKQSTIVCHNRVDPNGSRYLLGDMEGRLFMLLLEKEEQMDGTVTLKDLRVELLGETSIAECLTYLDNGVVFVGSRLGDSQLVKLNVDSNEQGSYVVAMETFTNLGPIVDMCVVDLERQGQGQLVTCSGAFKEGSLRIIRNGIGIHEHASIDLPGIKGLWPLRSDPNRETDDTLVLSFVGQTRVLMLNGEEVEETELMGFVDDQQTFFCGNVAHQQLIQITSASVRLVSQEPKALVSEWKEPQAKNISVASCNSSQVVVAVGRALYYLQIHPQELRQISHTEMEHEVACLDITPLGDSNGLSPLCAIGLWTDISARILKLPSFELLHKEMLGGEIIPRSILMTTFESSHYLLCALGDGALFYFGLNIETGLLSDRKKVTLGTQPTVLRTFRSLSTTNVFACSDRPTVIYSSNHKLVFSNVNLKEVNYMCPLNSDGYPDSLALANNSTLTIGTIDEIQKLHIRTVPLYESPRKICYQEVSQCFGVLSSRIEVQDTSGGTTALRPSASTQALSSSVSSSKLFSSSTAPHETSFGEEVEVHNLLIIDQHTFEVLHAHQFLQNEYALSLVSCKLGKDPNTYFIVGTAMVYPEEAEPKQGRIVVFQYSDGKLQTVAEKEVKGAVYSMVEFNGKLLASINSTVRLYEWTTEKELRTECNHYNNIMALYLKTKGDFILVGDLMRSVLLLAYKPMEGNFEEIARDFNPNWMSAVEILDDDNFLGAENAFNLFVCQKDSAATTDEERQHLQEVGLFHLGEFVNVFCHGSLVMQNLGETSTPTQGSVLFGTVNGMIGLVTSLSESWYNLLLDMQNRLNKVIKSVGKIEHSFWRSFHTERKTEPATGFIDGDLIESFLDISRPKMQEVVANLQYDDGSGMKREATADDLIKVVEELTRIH

SMILES	inhibition at 0.04 µM	inhibition at 0.2 µM
CNc1ccc(C(=O)Nc2ccc(C(F)(F)F)c(C3CC3)n2)c(NC2CC3(CC(NC(=O)CN4CCN(c5ccc(Nc6ncc7c(C)c(C(C)=O)c(=O)n(C8CCCC8)c7n6)nc5)CC4)C3)C2)n1 (stereo not shown) [CPD-87, 2-((6-(2-(4-(6-((6-Acetyl-8-cyclopentyl-5-methyl-7-oxo-7,8-dihydropyrido[2,3-d]pyrimidin-2-yl)amino)pyridin-3-yl)piperazin-1-yl)acetamido)spiro[3.3]heptan-2-yl)amino)-N-(6-cyclopropyl-5-(trifluoromethyl)pyridin-2-yl)-6-(methylamino)nicotinamide]	< 30%	< 30%
CNc1ccc(C(=O)Nc2ccc(N(C)C)nn2)c(NCCC2CCN(C(=O)CN3CCN(c4ccc(Nc5ncc6c(C)c(C(C)=O)c(=O)n(C7CCCC7)c6n5)nc4)CC3)CC2)n1 [CPD-89, 2-((2-(1-(2-(4-(6-((6-Acetyl-8-cyclopentyl-5-methyl-7-oxo-7,8-dihydropyrido[2,3-d]pyrimidin-2-yl)amino)pyridin-3-yl)piperazin-1-yl)acetyl)piperidin-4-yl)ethyl)amino)-N-(6-(dimethylamino)pyridazin-3-yl)-6-(methylamino)nicotinamide]	50 to 80%	50 to 80%
CNc1ccc(C(=O)Nc2ccc(N(C)C)nn2)c(NC2CC3(CC(NCCN4CCN(c5ccc(Nc6ncc7c(C)c(C(C)=O)c(=O)n(C8CCCC8)c7n6)nc5)CC4)C3)C2)n1 (stereo not shown) [CPD-96, 2-((6-((2-(4-(6-((6-Acetyl-8-cyclopentyl-5-methyl-7-oxo-7,8-dihydropyrido[2,3-d]pyrimidin-2-yl)amino)pyridin-3-yl)piperazin-1-yl)ethyl)amino)spiro[3.3]heptan-2-yl)amino)-N-(6-(dimethylamino)pyridazin-3-yl)-6-(methylamino)nicotinamide]	< 30%	< 30%
CNc1ccc(C(=O)Nc2ccc(N(C)C)nn2)c(NC2CC3(C2)CN(C(=O)CN2CCN(c4ccc(Nc5ncc6c(C)c(C(C)=O)c(=O)n(C7CCCC7)c6n5)nc4)CC2)C3)n1 [CPD-97]	50 to 80%	> 80%
CNc1ccc(C(=O)Nc2ccc(N(C)C)nn2)c(NCCCC2CN(C(=O)CN3CCN(c4ccc(Nc5ncc6c(C)c(C(C)=O)c(=O)n(C7CCCC7)c6n5)nc4)CC3)C2)n1 [CPD-102, 2-((3-(1-(2-(4-(6-((6-Acetyl-8-cyclopentyl-5-methyl-7-oxo-7,8-dihydropyrido[2,3-d]pyrimidin-2-yl)amino)pyridin-3-yl)piperazin-1-yl)acetyl)azetidin-3-yl)propyl)amino)-N-(6-(dimethylamino)pyridazin-3-yl)-6-(methylamino)nicotinamide]	50 to 80%	50 to 80%
CNc1ccc(C(=O)Nc2ccc(N)nn2)c(NCCCCCNC(=O)CN2CCN(c3ccc(Nc4ncc5c(C)c(C(C)=O)c(=O)n(C6CCCC6)c5n4)nc3)CC2)n1 [CPD-104, 2-((5-(2-(4-(6-((6-Acetyl-8-cyclopentyl-5-methyl-7-oxo-7,8-dihydropyrido[2,3-d]pyrimidin-2-yl)amino)pyridin-3-yl)piperazin-1-yl)acetamido)pentyl)amino)-N-(6-aminopyridazin-3-yl)-6-(methylamino)nicotinamide]	< 30%	< 30%
CNc1ccc(C(=O)Nc2ccc(C)nn2)c(NCCCCCNC(=O)CN2CCN(c3ccc(Nc4ncc5c(C)c(C(C)=O)c(=O)n(C6CCCC6)c5n4)nc3)CC2)n1 [CPD-105, 2-((5-(2-(4-(6-((6-Acetyl-8-cyclopentyl-5-methyl-7-oxo-7,8-dihydropyrido[2,3-d]pyrimidin-2-yl)amino)pyridin-3-yl)piperazin-1-yl)acetamido)pentyl)amino)-6-(methylamino)-N-(6-methylpyridazin-3-yl)nicotinamide]	< 30%	50 to 80%

More lines, now with the values ahead:

inhibition at 0.04 µM	inhibition at 0.2 µM	SMILES
30 to 50%	50 to 80%	CNc1ccc(C(=O)Nc2cccc(N(C)C)n2)c(NC2CC3(CC(NC(=O)CN4CCN(c5ccc(Nc6ncc7c(C)c(C(C)=O)c(=O)n(C8CCCC8)c7n6)nc5)CC4)C3)C2)n1 (stereo not shown) [CPD-88, 2-((6-(2-(4-(6-((6-Acetyl-8-cyclopentyl-5-methyl-7-oxo-7,8-dihydropyrido[2,3-d]pyrimidin-2-yl)amino)pyridin-3-yl)piperazin-1-yl)acetamido)spiro[3.3]heptan-2-yl)amino)-N-(6-(dimethylamino)pyridin-2-yl)-6-(methylamino)nicotinamide]
< 30%	50 to 80%	CNc1ccc(C(=O)Nc2cccc(C#N)n2)c(NC2CC3(CC(NC(=O)CN4CCN(c5ccc(Nc6ncc7c(C)c(C(C)=O)c(=O)n(C8CCCC8)c7n6)nc5)CC4)C3)C2)n1 (stereo not shown) [CPD-90, 2-((6-(2-(4-(6-((6-Acetyl-8-cyclopentyl-5-methyl-7-oxo-7,8-dihydropyrido[2,3-d]pyrimidin-2-yl)amino)pyridin-3-yl)piperazin-1-yl)acetamido)spiro[3.3]heptan-2-yl)amino)-N-(6-cyanopyridin-2-yl)-6-(methylanino)nicotinamide]
< 30%	30 to 50%	CNc1ccc(C(=O)Nc2cccc(C(F)(F)F)n2)c(NC2CC3(CC(NC(=O)CN4CCN(c5ccc(Nc6ncc7c(C)c(C(C)=O)c(=O)n(C8CCCC8)c7n6)nc5)CC4)C3)C2)n1 (stereo not shown) [CPD-91, 2-((6-(2-(4-(6-((6-Acetyl-8-cyclopentyl-5-methyl-7-oxo-7,8-dihydropyrido[2,3-d]pyrimidin-2-yl)amino)pyridin-3-yl)piperazin-1-yl)acetamido)spiro[3.3]heptan-2-yl)amino)-6-(methylamino)-N-(6-(trifluoromethyl)pyridin-2-yl)nicotinamide]
< 30%	< 30%	CNc1ccc(C(=O)Nc2cc(C)[nH]n2)c(NC2CC3(CC(NC(=O)CN4CCN(c5ccc(Nc6ncc7c(C)c(C(C)=O)c(=O)n(C8CCCC8)c7n6)nc5)CC4)C3)C2)n1 (stereo not shown) [CPD-92, 2-((6-(2-(4-(6-((6-Acetyl-8-cyclopentyl-5-methyl-7-oxo-7,8-dihydropyrido[2,3-d]pyrimidin-2-yl)amino)pyridin-3-yl)piperazin-1-yl)acetamido)spiro[3.3]heptan-2-yl)amino)-N-(5-methyl-1H-pyrazol-3-yl)-6-(methylamino)nicotinamide]
30 to 50%	50 to 80%	CNc1ccc(C(=O)Nc2ccn(C)n2)c(NC2CC3(CC(NC(=O)CN4CCN(c5ccc(Nc6ncc7c(C)c(C(C)=O)c(=O)n(C8CCCC8)c7n6)nc5)CC4)C3)C2)n1 (stereo not shown) [CPD-93, 2-((6-(2-(4-(6-((6-Acetyl-8-cyclopentyl-5-methyl-7-oxo-7,8-dihydropyrido[2,3-d]pyrimidin-2-yl)amino)pyridin-3-yl)piperazin-1-yl)acetamido)spiro[3.3]heptan-2-yl)amino)-N-(1-methyl-1H-pyrazol-3-yl)-6-(methylamino)nicotinamide]
< 30%	30 to 50%	CNc1ccc(C(=O)Nc2cnn(C)c2)c(NC2CC3(CC(NC(=O)CN4CCN(c5ccc(Nc6ncc7c(C)c(C(C)=O)c(=O)n(C8CCCC8)c7n6)nc5)CC4)C3)C2)n1 (stereo not shown) [CPD-94, 2-((6-(2-(4-(6-((6-Acetyl-8-cyclopentyl-5-methyl-7-oxo-7,8-dihydropyrido[2,3-d]pyrimidin-2-yl)amino)pyridin-3-yl)piperazin-1-yl)acetamido)spiro[3.3]heptan-2-yl)amino)-N-(1-methyl-1H-pyrazol-4-yl)-6-(methylamino)nicotinamide]
< 30%	< 30%	CNc1ccc(C(=O)Nc2cc(C(C)C)n(C)n2)c(NC2CC3(CC(NC(=O)CN4CCN(c5ccc(Nc6ncc7c(C)c(C(C)=O)c(=O)n(C8CCCC8)c7n6)nc5)CC4)C3)C2)n1 (stereo not shown) [CPD-95, 2-((6-(2-(4-(6-((6-Acetyl-8-cyclopentyl-5-methyl-7-oxo-7,8-dihydropyrido[2,3-d]pyrimidin-2-yl)amino)pyridin-3-yl)piperazin-1-yl)acetamido)spiro[3.3]heptan-2-yl)amino)-N-(5-isopropyl-1-methyl-1H-pyrazol-3-yl)-6-(methylamino)nicotinamide]
30 to 50%	50 to 80%	CNc1ccc(C(=O)Nc2cc(C3CC3)n(C)n2)c(NC2CC3(CC(NC(=O)CN4CCN(c5ccc(Nc6ncc7c(C)c(C(C)=O)c(=O)n(C8CCCC8)c7n6)nc5)CC4)C3)C2)n1 (stereo not shown) [CPD-98, 2-((6-(2-(4-(6-((6-Acetyl-8-cyclopentyl-5-methyl-7-oxo-7,8-dihydropyrido[2,3-d]pyrimidin-2-yl)amino)pyridin-3-yl)piperazin-1-yl)acetamido)spiro[3.3]heptan-2-yl)amino)-N-(5-cyclopropyl-1-methyl-1H-pyrazol-3-yl)-6-(methylamino)nicotinamide]
30 to 50%	50 to 80%	CNc1ccc(C(=O)Nc2cc(C)n(C(C)C)n2)c(NC2CC3(CC(NC(=O)CN4CCN(c5ccc(Nc6ncc7c(C)c(C(C)=O)c(=O)n(C8CCCC8)c7n6)nc5)CC4)C3)C2)n1 (stereo not shown) [CPD-99, 2-((6-(2-(4-(6-((6-Acetyl-8-cyclopentyl-5-methyl-7-oxo-7,8-dihydropyrido[2,3-d]pyrimidin-2-yl)amino)pyridin-3-yl)piperazin-1-yl)acetamido)spiro[3.3]heptan-2-yl)amino)-N-(1-isopropyl-5-methyl-1H-pyrazol-3-yl)-6-(methylamino)nicotinamide]
< 30%	50 to 80%	CNc1ccc(C(=O)Nc2cc[nH]n2)c(NC2CC3(CC(NC(=O)CN4CCN(c5ccc(Nc6ncc7c(C)c(C(C)=O)c(=O)n(C8CCCC8)c7n6)nc5)CC4)C3)C2)n1 (stereo not shown) [CPD-100, 2-((6-(2-(4-(6-((6-Acetyl-8-cyclopentyl-5-methyl-7-oxo-7,8-dihydropyrido[2,3-d]pyrimidin-2-yl)amino)pyridin-3-yl)piperazin-1-yl)acetamido)spiro[3.3]heptan-2-yl)amino)-6-(methylamino)-N-(1H-pyrazol-3-yl)nicotinamide]

Source: patent publication US20260297081A1, “COMPOUNDS AND METHODS OF TREATING CANCERS” (Cullgen Inc., priority 2023, published 2026)
